Source: ChEMBL document CHEMBL1201862, “PubChem BioAssay data set” (2004)
Values belong to the molecule of their own block, whether it stands above or below them. Activity calls are given as the source filed them.

How the values were obtained:
[1] = growth suppression of PTEN-null colon cells, dose response, cell-based, HCT116 PTEN knockout (AID 1047); type: functional;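 further: HCT116 colon tumor cells with PTEN knocked out; cells exposed to compound for 60 hours before readout; potency for loss of cell viability measured by luminescence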
[2] = growth suppression of beta-catenin-knockout colon cells, dose response, cell-based, HCT116, human colon tumor (AID 1045); type: functional;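 further: HCT116 colon tumor cells with beta catenin knocked out; cells exposed to compound for 60 hours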
[3] = cytotoxicity in KRAS-transformed pancreatic duct cells, primary screen, cell-based, fluorescence, HTS (AID 431); type: functional; details: Homo sapiens;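 further: cell line used: HPDE-C7K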
[4] = biological target: Estrogen receptor beta (Homo sapiens, UniProt Q92731);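 further: recombinant ER-beta bound to coactivator SRC1 peptide in presence of estradiol agonist; inhibitors block coactivator peptide binding and lower the FRET signal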
Estrogen receptor beta, sequence (Q92731 whole entry): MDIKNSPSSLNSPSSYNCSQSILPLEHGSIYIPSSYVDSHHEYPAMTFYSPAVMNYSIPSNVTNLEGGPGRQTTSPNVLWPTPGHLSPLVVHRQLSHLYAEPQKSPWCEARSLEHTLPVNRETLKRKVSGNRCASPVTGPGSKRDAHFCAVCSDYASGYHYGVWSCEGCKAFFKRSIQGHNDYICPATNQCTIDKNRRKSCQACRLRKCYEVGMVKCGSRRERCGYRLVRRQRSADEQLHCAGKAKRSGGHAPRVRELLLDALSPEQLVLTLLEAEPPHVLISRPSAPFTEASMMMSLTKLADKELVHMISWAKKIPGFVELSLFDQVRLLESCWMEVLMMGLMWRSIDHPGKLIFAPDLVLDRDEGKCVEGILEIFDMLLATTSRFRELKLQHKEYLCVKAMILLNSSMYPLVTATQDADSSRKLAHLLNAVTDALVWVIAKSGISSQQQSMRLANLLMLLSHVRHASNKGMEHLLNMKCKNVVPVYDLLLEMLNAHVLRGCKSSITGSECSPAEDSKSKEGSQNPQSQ

[5] = cytotoxicity in HPDE-C7 cells, cell-based, fluorescence, HTS (AID 430); type: functional; details: Homo sapiens
[6] = biological target: DNA dC->dU-editing enzyme APOBEC-3G (Homo sapiens, UniProt Q9HC16); test: Dose Response confirmation of small molecule APOBEC3G DNA Deaminase Inhibitors via a fluorescence-based single-stranded DNA deaminase assay. [Related pubchem assays (depositor defined):AID493012, AID493028]; type: functional
DNA dC->dU-editing enzyme APOBEC-3G, sequence (Q9HC16 whole entry): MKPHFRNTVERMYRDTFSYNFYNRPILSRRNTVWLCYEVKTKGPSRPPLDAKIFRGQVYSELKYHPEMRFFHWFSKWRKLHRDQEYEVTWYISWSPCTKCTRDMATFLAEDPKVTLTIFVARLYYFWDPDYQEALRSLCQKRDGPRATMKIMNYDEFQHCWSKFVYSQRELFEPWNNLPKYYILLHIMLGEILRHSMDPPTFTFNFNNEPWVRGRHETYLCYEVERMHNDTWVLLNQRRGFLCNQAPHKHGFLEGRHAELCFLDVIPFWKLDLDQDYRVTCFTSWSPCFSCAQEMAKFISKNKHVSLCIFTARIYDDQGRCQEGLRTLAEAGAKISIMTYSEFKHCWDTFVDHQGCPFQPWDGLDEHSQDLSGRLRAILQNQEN

[7] = biological target: DNA dC->dU-editing enzyme APOBEC-3A (Homo sapiens, UniProt P31941); test: APOBEC3A DNA deaminase inhibitors, dose response, biochemical (AID 504722); type: functional
DNA dC->dU-editing enzyme APOBEC-3A, sequence (P31941 whole entry): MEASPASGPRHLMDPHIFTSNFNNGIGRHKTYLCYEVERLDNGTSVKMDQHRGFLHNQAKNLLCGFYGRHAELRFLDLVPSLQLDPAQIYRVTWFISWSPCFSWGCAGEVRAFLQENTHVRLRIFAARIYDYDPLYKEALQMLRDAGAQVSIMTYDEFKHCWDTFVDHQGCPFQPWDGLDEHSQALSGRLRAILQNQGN

[8] = biological target: T1, Coagulation factor XII (Homo sapiens, UniProt P00748); type: functional;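 further: activated factor XIIa alpha cleaving a fluorogenic AMC peptide substrate; inhibitor potency from loss of enzyme activity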
T1 sequence (P00748 whole entry): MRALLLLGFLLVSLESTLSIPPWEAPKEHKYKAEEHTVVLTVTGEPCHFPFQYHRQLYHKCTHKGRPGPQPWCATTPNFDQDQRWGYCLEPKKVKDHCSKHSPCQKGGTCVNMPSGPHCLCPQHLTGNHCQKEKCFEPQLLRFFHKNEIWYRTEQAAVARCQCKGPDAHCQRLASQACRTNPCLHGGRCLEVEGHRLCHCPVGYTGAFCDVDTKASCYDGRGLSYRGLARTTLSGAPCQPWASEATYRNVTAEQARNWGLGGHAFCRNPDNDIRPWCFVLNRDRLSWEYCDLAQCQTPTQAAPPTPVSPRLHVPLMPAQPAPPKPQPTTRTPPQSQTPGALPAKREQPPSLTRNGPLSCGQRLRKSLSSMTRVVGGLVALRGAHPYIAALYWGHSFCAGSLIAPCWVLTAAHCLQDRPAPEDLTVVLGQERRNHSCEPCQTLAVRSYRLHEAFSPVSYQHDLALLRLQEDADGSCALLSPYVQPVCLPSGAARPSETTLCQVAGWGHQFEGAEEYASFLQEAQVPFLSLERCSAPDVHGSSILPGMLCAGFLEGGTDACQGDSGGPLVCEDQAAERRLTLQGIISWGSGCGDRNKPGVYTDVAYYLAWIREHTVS

[9] = biological target: Cytochrome P450 2D6 (Homo sapiens, UniProt P10635);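 further: CYP2D6 member of a cytochrome P450 panel assay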
Cytochrome P450 2D6, sequence (P10635 whole entry): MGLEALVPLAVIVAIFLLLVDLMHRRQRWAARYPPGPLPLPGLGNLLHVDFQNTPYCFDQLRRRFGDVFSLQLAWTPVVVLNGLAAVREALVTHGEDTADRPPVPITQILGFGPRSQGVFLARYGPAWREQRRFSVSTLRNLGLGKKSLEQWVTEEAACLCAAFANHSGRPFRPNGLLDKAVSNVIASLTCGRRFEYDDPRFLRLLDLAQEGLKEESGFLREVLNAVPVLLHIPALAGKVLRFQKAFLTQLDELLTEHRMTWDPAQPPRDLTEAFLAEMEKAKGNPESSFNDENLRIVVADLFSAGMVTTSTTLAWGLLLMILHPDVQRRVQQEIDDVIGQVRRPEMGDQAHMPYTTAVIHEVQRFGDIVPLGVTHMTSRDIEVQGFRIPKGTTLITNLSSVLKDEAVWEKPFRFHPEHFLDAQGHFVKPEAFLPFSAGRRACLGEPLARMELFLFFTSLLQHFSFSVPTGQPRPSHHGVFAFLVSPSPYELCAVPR

[10] = biological target: Cytochrome P450 2C19 (Homo sapiens, UniProt P33261); test: Cytochrome panel assay with activity outcomes. Panel member name: p450-cyp2c19 Compounds with AC50 equal or less than 10 uM are considered active; type: functional; details: read-out: AC50
Cytochrome P450 2C19, sequence (P33261 whole entry): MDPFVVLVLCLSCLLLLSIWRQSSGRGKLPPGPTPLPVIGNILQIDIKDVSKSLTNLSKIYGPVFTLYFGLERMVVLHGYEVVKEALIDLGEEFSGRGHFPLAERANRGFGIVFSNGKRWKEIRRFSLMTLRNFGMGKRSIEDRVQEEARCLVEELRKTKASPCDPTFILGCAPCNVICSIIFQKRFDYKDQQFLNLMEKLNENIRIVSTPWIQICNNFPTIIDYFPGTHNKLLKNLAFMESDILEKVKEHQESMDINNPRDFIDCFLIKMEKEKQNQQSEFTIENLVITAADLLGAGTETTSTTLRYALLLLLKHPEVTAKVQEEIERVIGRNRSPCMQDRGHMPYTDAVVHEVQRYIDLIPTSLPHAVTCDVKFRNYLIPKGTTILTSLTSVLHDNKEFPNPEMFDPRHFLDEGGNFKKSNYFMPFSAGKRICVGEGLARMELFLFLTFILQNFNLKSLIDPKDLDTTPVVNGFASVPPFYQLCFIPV

Structure (SMILES): Cc1cccc(-n2c(O)nc3c(C(N)=O)nc(-c4ccccc4Cl)nc32)c1
EC50 [1]: 10.5 µM (active)
EC50 [2]: 11.2 µM (active)

Structure (SMILES): Cc1nn2c(-c3cccc(NC(=O)CSc4nc5ccccc5o4)c3)nnc2c2ccccc12
EC50 [3]: 7.73 µM (active)
IC50 [4]: > 50 µM (not active)
EC50 [5]: 7.91 µM (active)

Structure (SMILES): S=c1[nH]nc(Cc2cccs2)n1-c1ccccc1
IC50 [6]: 7.51 µM (active)
IC50 [7]: > 100 µM (inactive)

IC50 [8]: > 50 µM (inactive)
Structure (SMILES): COC(=O)c1cccc(NS(=O)(=O)c2ccc(OC)c(OC)c2)c1C

Structure (SMILES): Cc1cccc(NC(S)=NC2CC3CCCC(C2)N3Cc2cccs2)c1 (stereo unspecified)
AC50 [9]: 3.98 µM (inconclusive)
EC50 [1]: 65.3 µM (active)
EC50 [2]: 92.3 µM (active)
AC50 [10]: 28.2 µM (inconclusive)

Structure (SMILES): O=C(c1ccc(Cl)c([N+](=O)[O-])c1)N(Cc1ccc(Cl)cc1)C1CCS(=O)(=O)C1 (stereo unspecified)
EC50 [1]: 26.8 µM (active)
EC50 [2]: 17.9 µM (active)

Structure (SMILES): O=c1n(Cc2ccc(Cl)cc2)c2sc3c(c2c2ncnn12)CCCC3
EC50 [3]: 13.1 µM (active)
EC50 [5]: 13.3 µM (active)
